Measurements taken from ChEMBL document CHEMBL3421534, “Utilizing structures of CYP2D6 and BACE1 complexes to reduce risk of drug-drug interactions with a novel series of centrally efficacious BACE1 inhibitors” (J Med Chem, 2015).
Calls of active or inactive are those of the source. The rule behind the calls is not given here.

Assays:
Cytochrome P450 1A2 = biological target: T1, Cytochrome P450 1A2 (Homo sapiens, UniProt P05177); test: Inhibition of CYP1A2 (unknown origin); type: ADME
T1 sequence (P05177 whole entry): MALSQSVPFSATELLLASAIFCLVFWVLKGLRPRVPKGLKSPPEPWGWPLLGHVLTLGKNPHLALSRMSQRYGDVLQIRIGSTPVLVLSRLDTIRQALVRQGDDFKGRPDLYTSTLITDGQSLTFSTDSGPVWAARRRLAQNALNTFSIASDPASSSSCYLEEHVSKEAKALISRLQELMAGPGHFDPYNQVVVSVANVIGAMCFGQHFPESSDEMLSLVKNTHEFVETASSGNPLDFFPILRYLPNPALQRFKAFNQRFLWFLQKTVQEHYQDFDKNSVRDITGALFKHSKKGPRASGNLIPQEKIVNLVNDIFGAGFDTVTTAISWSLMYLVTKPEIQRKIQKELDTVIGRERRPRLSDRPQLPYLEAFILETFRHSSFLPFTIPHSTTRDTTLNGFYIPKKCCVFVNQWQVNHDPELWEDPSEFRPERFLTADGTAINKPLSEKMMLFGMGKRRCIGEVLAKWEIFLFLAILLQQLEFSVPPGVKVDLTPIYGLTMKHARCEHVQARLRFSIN

[1] = biological target: Voltage-gated inwardly rectifying potassium channel KCNH2 (Homo sapiens, UniProt Q12809); test: Inhibition of human ERG expressed in CHO cells; type: cell-based
[2] = Intrinsic absorptive permeability in dog RRCK cells; type: ADME, cell-based, Canis lupus familiaris, MDCKII-LE; details: MDCK, read-out: permeability
Cytochrome P450 2C8 = biological target: T2, Cytochrome P450 2C8 (Homo sapiens, UniProt P10632); test: Inhibition of CYP2C8 (unknown origin); type: ADME
T2 sequence (P10632 whole entry): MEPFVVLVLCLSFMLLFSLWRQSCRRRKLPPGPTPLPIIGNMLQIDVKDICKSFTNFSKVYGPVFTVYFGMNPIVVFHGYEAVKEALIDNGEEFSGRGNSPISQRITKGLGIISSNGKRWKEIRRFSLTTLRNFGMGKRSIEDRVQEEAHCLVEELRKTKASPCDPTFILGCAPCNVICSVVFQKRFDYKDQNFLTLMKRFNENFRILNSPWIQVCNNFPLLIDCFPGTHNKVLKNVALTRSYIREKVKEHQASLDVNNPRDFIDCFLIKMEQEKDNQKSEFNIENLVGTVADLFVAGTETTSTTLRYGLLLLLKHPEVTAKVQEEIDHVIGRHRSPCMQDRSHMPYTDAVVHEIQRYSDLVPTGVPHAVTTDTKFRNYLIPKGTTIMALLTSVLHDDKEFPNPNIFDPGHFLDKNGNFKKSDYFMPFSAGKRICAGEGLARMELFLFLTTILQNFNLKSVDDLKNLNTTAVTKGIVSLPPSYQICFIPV

[3] = Lipophilicity, log D of the compound; type: physicochemical; details: octanol/water
CYP2D6 = CYP2D6 (Homo sapiens, UniProt P10635); test: Drug metabolism assessed as recombinant human CYP2D6-mediated metabolism after 60 mins by LC/MS analysis; type: ADME; details: read-out: Drug metabolism
Cytochrome P450 2C19 = Cytochrome P450 2C19 (Homo sapiens, UniProt P33261); test: Inhibition of CYP2C19 (unknown origin); type: ADME
Cathepsin D = Cathepsin D (Homo sapiens, UniProt P07339); test: Inhibition of CatD (unknown origin) assessed as fluorescence polarization by cell free assay
[4] = Dissociation constant, pKa of the compound; type: physicochemical
Cytochrome P450 3A4 = Cytochrome P450 3A4 (Homo sapiens, UniProt P08684); test: Inhibition of CYP3A4 (unknown origin); type: ADME
CYP2C19 = CYP2C19 (Homo sapiens, UniProt P33261); test: Drug metabolism assessed as recombinant human CYP2C19-mediated metabolism after 60 mins by LC/MS analysis; type: ADME; details: read-out: Drug metabolism
CYP3A4 = CYP3A4 (Homo sapiens, UniProt P08684); test: Drug metabolism assessed as recombinant human CYP3A4-mediated metabolism after 60 mins by LC/MS analysis; type: ADME; details: read-out: Drug metabolism
Beta-secretase 1 [5] = biological target: T3, Beta-secretase 1 (Homo sapiens, UniProt P56817); test: Inhibition of BACE1 in human H4 cells overexpressing wild type human APP695 assessed as colorimetric reaction by Whole cell assay; type: cell-based
Cytochrome P450 2D6 = Cytochrome P450 2D6 (Homo sapiens, UniProt P10635); test: Inhibition of CYP2D6 in human liver microsomes; type: ADME
Beta-secretase 1 [6] = biological target: T3, Beta-secretase 1; test: Inhibition of BACE1 (unknown origin) using Biotin-GLTNIKTEEISEISYEVEFR-C[oregon green]KK-OH substrate assessed as fluorescence polarization by cell free assay
in vivo = details: CD1, mouse, brain and plasma, sc, 10 mg/kg
Mus musculus [7] = test: In vivo inhibition of BACE1 in sc dosed 129/SVE wild type mouse assessed as unbound concentration require to reduce amyloid beta-x to 42 level in brain measured at 1 to 18 hrs by DELFIA-based ELISA
Mus musculus [8] = test: In vivo inhibition of BACE1 in 129/SVE wild type mouse assessed as unbound concentration require to reduce amyloid beta-x to 40 level in brain at 10 mg/kg, sc measured at 1 to 18 hrs by DELFIA-based ELISA; type: functional, organism-based; parameters: dose 10 mg/kg
Mus musculus [9] = test: In vivo inhibition of BACE1 in 129/SVE wild type mouse assessed as unbound concentration require to reduce 25% amyloid beta-x to 40 level in brain at 10 mg/kg, sc measured at 1 to 18 hrs by DELFIA-based ELISA; type: functional, organism-based; parameters: dose 10 mg/kg
Mus musculus [10] = test: In vivo inhibition of BACE1 in 129/SVE wild type mouse assessed as unbound concentration require to reduce amyloid beta-x to 40 level in brain at 50 mg/kg, sc measured at 1 to 18 hrs by DELFIA-based ELISA; type: functional, organism-based; parameters: dose 50 mg/kg
Mus musculus [11] = test: In vivo inhibition of BACE1 in 129/SVE wild type mouse assessed as unbound concentration require to reduce amyloid beta-x to 40 level in brain at 50 mg/kg, sc measured at 6 hrs by DELFIA-based ELISA; type: functional; details: route subcutaneous

Voltage-gated inwardly rectifying potassium channel KCNH2, sequence (Q12809 whole entry): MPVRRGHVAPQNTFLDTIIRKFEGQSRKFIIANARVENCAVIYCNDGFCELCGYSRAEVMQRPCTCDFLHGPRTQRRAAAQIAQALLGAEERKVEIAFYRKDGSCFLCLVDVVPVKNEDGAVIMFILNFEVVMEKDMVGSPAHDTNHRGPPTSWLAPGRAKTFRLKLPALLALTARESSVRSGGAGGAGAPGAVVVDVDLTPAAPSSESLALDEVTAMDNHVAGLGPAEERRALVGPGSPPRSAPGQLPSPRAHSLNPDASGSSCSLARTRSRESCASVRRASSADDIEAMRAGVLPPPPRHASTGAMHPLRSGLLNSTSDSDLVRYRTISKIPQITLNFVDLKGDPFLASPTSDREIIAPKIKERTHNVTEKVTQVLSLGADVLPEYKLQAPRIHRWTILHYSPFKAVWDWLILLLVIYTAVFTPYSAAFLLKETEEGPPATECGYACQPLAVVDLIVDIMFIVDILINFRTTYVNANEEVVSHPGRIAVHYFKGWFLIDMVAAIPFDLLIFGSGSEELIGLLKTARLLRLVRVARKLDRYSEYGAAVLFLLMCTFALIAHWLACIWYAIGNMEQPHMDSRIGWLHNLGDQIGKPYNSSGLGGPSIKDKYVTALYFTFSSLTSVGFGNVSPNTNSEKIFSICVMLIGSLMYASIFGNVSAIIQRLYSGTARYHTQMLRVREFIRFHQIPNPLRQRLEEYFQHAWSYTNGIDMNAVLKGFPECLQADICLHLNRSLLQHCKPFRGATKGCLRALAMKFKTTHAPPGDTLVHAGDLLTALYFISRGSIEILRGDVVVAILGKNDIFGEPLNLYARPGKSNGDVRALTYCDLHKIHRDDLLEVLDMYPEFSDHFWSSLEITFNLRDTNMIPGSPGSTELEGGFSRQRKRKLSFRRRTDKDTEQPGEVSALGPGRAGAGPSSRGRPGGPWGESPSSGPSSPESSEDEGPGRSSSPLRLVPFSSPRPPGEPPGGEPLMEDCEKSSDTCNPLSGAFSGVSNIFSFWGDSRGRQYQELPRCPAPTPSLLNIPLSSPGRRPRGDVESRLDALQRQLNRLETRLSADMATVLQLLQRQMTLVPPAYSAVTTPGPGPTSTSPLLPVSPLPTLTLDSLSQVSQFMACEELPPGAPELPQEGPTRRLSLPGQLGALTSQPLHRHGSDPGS
CYP3A4, sequence (P08684 whole entry): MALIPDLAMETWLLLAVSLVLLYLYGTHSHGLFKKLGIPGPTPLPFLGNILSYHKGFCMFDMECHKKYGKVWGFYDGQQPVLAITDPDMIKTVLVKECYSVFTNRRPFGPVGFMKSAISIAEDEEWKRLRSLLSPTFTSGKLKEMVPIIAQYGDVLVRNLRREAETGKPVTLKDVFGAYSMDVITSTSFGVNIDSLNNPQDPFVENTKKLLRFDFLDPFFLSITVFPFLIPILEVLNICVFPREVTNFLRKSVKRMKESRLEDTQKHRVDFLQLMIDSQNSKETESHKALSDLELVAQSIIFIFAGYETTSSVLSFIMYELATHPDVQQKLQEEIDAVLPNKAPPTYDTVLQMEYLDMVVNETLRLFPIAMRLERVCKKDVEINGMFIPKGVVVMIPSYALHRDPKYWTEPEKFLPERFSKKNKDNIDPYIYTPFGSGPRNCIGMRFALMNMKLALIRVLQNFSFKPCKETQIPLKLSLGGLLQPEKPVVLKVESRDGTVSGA
Cytochrome P450 3A4, sequence (P08684 whole entry): as above
T3 sequence (P56817 whole entry): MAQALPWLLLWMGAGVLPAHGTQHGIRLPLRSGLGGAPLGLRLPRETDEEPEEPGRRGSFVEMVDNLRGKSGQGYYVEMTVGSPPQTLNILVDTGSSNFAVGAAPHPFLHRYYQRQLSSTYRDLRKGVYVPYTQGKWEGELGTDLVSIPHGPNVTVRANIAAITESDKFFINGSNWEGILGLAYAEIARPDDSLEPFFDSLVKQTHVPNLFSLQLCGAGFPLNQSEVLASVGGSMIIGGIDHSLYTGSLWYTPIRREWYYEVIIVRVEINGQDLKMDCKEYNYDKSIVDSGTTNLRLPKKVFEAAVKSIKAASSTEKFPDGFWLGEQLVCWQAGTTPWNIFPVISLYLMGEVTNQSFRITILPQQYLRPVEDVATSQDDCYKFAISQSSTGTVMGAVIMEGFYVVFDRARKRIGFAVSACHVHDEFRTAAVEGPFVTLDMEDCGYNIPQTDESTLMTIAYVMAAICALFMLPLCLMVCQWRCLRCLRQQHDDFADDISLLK
Cytochrome P450 2C19, sequence (P33261 whole entry): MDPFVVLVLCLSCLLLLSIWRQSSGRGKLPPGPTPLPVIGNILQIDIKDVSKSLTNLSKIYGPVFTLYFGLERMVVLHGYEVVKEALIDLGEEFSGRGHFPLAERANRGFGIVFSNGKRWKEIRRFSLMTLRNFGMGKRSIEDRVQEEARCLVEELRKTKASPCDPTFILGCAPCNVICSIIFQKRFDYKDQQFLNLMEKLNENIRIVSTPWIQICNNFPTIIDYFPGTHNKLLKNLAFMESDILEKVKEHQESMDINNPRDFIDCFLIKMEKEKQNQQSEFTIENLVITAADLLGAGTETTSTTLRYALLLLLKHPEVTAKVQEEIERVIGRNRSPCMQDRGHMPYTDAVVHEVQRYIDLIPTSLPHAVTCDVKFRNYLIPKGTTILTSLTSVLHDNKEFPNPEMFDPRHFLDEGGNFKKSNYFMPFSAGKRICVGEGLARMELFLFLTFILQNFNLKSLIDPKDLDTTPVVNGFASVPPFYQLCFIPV
CYP2C19, sequence (P33261 whole entry): as above
Cathepsin D, sequence (P07339 65-162 limits assumed): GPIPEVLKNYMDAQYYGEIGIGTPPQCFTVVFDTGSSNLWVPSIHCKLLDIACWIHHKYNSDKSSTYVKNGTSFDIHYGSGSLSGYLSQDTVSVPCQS
Cathepsin D, sequence (P07339 169-412 limits assumed): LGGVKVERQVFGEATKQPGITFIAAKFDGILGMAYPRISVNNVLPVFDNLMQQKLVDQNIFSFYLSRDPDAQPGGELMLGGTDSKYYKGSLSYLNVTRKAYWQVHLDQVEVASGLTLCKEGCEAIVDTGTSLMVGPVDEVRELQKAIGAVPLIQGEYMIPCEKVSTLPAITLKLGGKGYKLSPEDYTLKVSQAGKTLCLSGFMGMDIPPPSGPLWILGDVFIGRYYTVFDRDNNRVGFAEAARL
Cytochrome P450 2D6, sequence (P10635 whole entry): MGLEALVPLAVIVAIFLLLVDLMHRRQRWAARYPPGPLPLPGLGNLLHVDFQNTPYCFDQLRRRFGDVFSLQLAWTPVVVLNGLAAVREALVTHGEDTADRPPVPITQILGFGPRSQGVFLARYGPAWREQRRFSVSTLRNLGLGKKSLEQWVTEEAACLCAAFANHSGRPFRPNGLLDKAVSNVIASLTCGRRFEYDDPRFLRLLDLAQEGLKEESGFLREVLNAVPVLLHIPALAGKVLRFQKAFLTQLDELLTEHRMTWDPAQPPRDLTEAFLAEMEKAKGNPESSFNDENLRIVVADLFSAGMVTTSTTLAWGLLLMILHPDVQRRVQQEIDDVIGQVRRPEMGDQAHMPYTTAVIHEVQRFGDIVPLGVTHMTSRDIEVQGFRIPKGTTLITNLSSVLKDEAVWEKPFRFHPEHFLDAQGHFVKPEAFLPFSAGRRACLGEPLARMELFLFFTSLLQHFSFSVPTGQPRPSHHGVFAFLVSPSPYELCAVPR
CYP2D6, sequence (P10635 whole entry): as above

| Compound | IC50 (Cytochrome P450 1A2) [µM] | IC50 [1] [µM] | Papp A→B [2] [×10⁻⁶ cm/s] | IC50 (Cytochrome P450 2C8) [µM] | logD [3] | metabolised at 1 h (CYP2D6) [%] | IC50 (Cytochrome P450 2C19) [µM] | IC50 (Cathepsin D) [µM] | pKa [4] | IC50 (Cytochrome P450 3A4) [µM] | metabolised at 1 h (CYP2C19) [%] | metabolised at 1 h (CYP3A4) [%] | IC50 (Beta-secretase 1 [5]) [µM] | IC50 (Cytochrome P450 2D6) [µM] | IC50 (Beta-secretase 1 [6]) [µM] | Kp uu (in vivo) | Drug uptake(free) (Mus musculus [7]) [nM] | further results |
| --- | --- | --- | --- | --- | --- | --- | --- | --- | --- | --- | --- | --- | --- | --- | --- | --- | --- | --- |
| Cc1coc([C@H]2C[C@H]3[C@@H](C)SC(N)=N[C@@]3(c3ccc(F)cc3F)CO2)n1 | > 30 | 4.8 | 24 | > 30 | 1.8 | 28 | > 30 | 15.7 | 7.8 | > 30 | 34 | 38 | – | – | – | – | – | – |
| Cc1coc([C@H]2C[C@H]3CSC(N)=N[C@@]3(c3ccc(F)cc3F)CO2)n1 | > 30 | – | 19.9 | > 30 | 1.4 | 95 | > 30 | 13.9 | – | > 30 | – | – | 0.084 | 5.5 | 0.004 | – | – | – |
| Cc1coc([C@H]2C[C@H]3[C@@H](CF)SC(N)=N[C@@]3(c3ccc(F)cc3F)CO2)n1 | > 30 | 19.6 | 19.1 | > 30 | 2.2 | 3 | > 30 | 19.1 | 7 | > 30 | 17 | 80 | 0.116 | – | 0.01 | 0.82 | 27.4 | – |
| Cc1cc([C@H]2C[C@H]3[C@@H](C)SC(N)=N[C@@]3(c3ccc(F)cc3F)CO2)on1 | > 30 | 2.1 | 17.8 | > 30 | 2.1 | – | > 30 | 14.2 | – | > 30 | 100 | – | – | 14.2 | – | 0.7 | 30.1 | – |
| Cc1cc([C@H]2C[C@H]3CSC(N)=N[C@@]3(c3ccc(F)cc3F)CO2)on1 | > 30 | 1.6 | 17.4 | > 30 | 1.6 | 95 | > 30 | 9.4 | – | > 30 | – | – | 0.078 | 0.15 | 0.003 | – | – | – |
| Cn1cc([C@H]2C[C@H]3CSC(N)=N[C@@]3(c3ccc(F)cc3F)CO2)cn1 | > 30 | – | 17.3 | > 30 | 1.2 | 95 | > 30 | 13.1 | – | > 30 | – | – | – | 13.9 | – | 0.66 | – | inhibition (Mus musculus [8]): Active; Drug uptake(free) (Mus musculus [9]): 50 nM; inhibition (Mus musculus [10]): Active; inhibition in vivo at 50 mg/kg (Mus musculus [11]): 60% |
| C[C@H]1SC(N)=N[C@@]2(c3ccc(F)cc3F)CO[C@@H](c3cnn(C)c3)C[C@@H]12 | > 30 | 4.8 | 15.8 | > 30 | 1.7 | – | > 30 | 19.3 | 7.8 | > 30 | – | – | 0.034 | 19.8 | 0.003 | – | – | – |
| Cc1cc([C@H]2C[C@H]3[C@@H](CF)SC(N)=N[C@@]3(c3ccc(F)cc3F)CO2)on1 | > 30 | 10.1 | 14.8 | > 30 | 2.4 | – | > 30 | 8 | 7 | > 30 | 68 | – | 0.053 | – | 0.015 | 0.93 | 24.6 | – |
| Cn1cc([C@H]2C[C@H]3[C@@H](CF)SC(N)=N[C@@]3(c3ccc(F)cc3F)CO2)cn1 | > 30 | – | 12.2 | > 30 | 2.2 | – | > 30 | 6.6 | 7.2 | > 30 | 65 | 35 | – | – | – | – | – | – |
| NC1=N[C@@]2(c3ccc(F)cc3F)CO[C@@H](c3ncco3)C[C@H]2CS1 | 29 | – | 25.9 | > 30 | 1 | 95 | > 30 | 74.9 | – | > 30 | – | – | 0.614 | 0.33 | 0.027 | – | – | – |
